According to the NIST ThermoML archive (doi:10.1021/je050399c):

Conditions: Fluid (supercritical or subcritical phases), Vibrating wire viscometry

N#N [nitrogen]
Conditions | viscosity [mPa·s]
348.15 K, 25007 kPa | 0.02543
348.15 K, 26007 kPa | 0.02571
348.15 K, 27005 kPa | 0.02598
348.15 K, 27995 kPa | 0.02628
348.15 K, 29000 kPa | 0.02655
348.15 K, 30021 kPa | 0.02687
348.15 K, 31015 kPa | 0.02717
348.15 K, 32013 kPa | 0.02747
348.15 K, 33000 kPa | 0.02776
348.15 K, 34013 kPa | 0.02808
348.15 K, 34919 kPa | 0.02833
373.15 K, 100.3 kPa | 0.02102
373.15 K, 200.1 kPa | 0.02106
373.15 K, 301 kPa | 0.02108
373.15 K, 400.2 kPa | 0.02109
373.15 K, 600.7 kPa | 0.0211
373.15 K, 800.6 kPa | 0.02112
373.15 K, 1000.5 kPa | 0.02114
373.15 K, 1501.2 kPa | 0.0212
373.15 K, 2002.1 kPa | 0.02125
373.15 K, 2501.4 kPa | 0.02131
373.15 K, 3003.5 kPa | 0.02137
373.15 K, 3503.3 kPa | 0.02144
373.15 K, 4010 kPa | 0.0215
373.15 K, 4501.6 kPa | 0.02157
373.15 K, 5007.4 kPa | 0.02164
373.15 K, 5504.7 kPa | 0.02172
373.15 K, 6000.6 kPa | 0.0218
373.15 K, 6507.4 kPa | 0.02188
373.15 K, 7006.9 kPa | 0.02194
373.15 K, 7500.7 kPa | 0.02203
373.15 K, 8002.7 kPa | 0.02211
373.15 K, 8504.3 kPa | 0.0222
373.15 K, 9002.1 kPa | 0.02228
373.15 K, 9499.1 kPa | 0.02238
373.15 K, 10010 kPa | 0.02247
373.15 K, 11006 kPa | 0.02267
373.15 K, 12000 kPa | 0.02284
373.15 K, 13002 kPa | 0.02307
373.15 K, 14010 kPa | 0.02327
373.15 K, 15013 kPa | 0.02348
373.15 K, 16013 kPa | 0.0237
373.15 K, 17018 kPa | 0.02392
373.15 K, 18001 kPa | 0.02414
373.15 K, 19005 kPa | 0.0244
373.15 K, 19977 kPa | 0.02462
373.15 K, 21015 kPa | 0.02487
373.15 K, 22011 kPa | 0.0251
373.15 K, 23004 kPa | 0.02536
373.15 K, 24005 kPa | 0.02559
373.15 K, 25012 kPa | 0.02584
373.15 K, 26006 kPa | 0.0261
373.15 K, 27007 kPa | 0.02635
373.15 K, 28017 kPa | 0.02662
373.15 K, 29005 kPa | 0.02688
373.15 K, 30003 kPa | 0.02714
373.15 K, 31001 kPa | 0.02741
373.15 K, 32010 kPa | 0.02765
373.15 K, 33011 kPa | 0.02792
373.15 K, 34006 kPa | 0.02821
373.15 K, 34834 kPa | 0.02844
398.15 K, 100.1 kPa | 0.02203
398.15 K, 200.9 kPa | 0.02207
398.15 K, 300.8 kPa | 0.02209
398.15 K, 400.5 kPa | 0.0221
398.15 K, 600.3 kPa | 0.02212
398.15 K, 800.5 kPa | 0.02213
398.15 K, 1001 kPa | 0.02215
398.15 K, 1501.8 kPa | 0.0222
398.15 K, 2001.3 kPa | 0.02225
398.15 K, 2495.8 kPa | 0.02231
398.15 K, 3000.7 kPa | 0.02236
398.15 K, 3501.8 kPa | 0.02242
398.15 K, 4002.8 kPa | 0.02247
398.15 K, 4503.1 kPa | 0.02254
398.15 K, 5003.7 kPa | 0.0226
398.15 K, 5502.6 kPa | 0.02266
398.15 K, 6004.9 kPa | 0.02273
398.15 K, 6501.8 kPa | 0.0228
398.15 K, 7005.3 kPa | 0.02287
398.15 K, 7507.1 kPa | 0.02294
398.15 K, 8007.6 kPa | 0.02302
398.15 K, 8501 kPa | 0.02311
398.15 K, 9010.3 kPa | 0.02317
398.15 K, 9506.9 kPa | 0.02324
398.15 K, 10005 kPa | 0.02334
398.15 K, 11003 kPa | 0.0235
398.15 K, 11989 kPa | 0.02369
398.15 K, 13002 kPa | 0.02386
398.15 K, 13997 kPa | 0.02405
398.15 K, 15013 kPa | 0.02423
398.15 K, 16005 kPa | 0.02443
398.15 K, 17010 kPa | 0.02463
398.15 K, 18010 kPa | 0.02482
398.15 K, 19003 kPa | 0.02503
398.15 K, 20019 kPa | 0.02525
398.15 K, 21009 kPa | 0.02546
398.15 K, 22011 kPa | 0.02568
398.15 K, 23034 kPa | 0.0259
398.15 K, 23993 kPa | 0.0261
398.15 K, 25001 kPa | 0.02634
398.15 K, 25977 kPa | 0.02657
398.15 K, 27031 kPa | 0.02679
398.15 K, 28028 kPa | 0.02703
398.15 K, 29028 kPa | 0.02728
398.15 K, 29911 kPa | 0.02747
398.15 K, 31023 kPa | 0.02773
398.15 K, 32013 kPa | 0.02796
398.15 K, 33034 kPa | 0.02822
398.15 K, 34043 kPa | 0.02845
398.15 K, 35040 kPa | 0.02872
423.15 K, 100.1 kPa | 0.02302
423.15 K, 200.1 kPa | 0.02305
423.15 K, 300.4 kPa | 0.02307
423.15 K, 400.1 kPa | 0.02309
423.15 K, 600.2 kPa | 0.0231
423.15 K, 800.3 kPa | 0.02312
423.15 K, 1001.1 kPa | 0.02313
423.15 K, 1502.5 kPa | 0.02318
423.15 K, 1997.8 kPa | 0.02322
423.15 K, 2498 kPa | 0.02327
423.15 K, 3002.3 kPa | 0.02332
423.15 K, 3505.8 kPa | 0.02337
423.15 K, 4004 kPa | 0.02342
423.15 K, 4501.2 kPa | 0.02348
423.15 K, 5002.7 kPa | 0.02353
423.15 K, 5502.8 kPa | 0.02358
423.15 K, 6002.2 kPa | 0.02365
423.15 K, 6502.3 kPa | 0.02372
423.15 K, 7003 kPa | 0.02377
423.15 K, 7497.9 kPa | 0.02384
423.15 K, 8004.2 kPa | 0.02391
423.15 K, 8503 kPa | 0.02398
423.15 K, 9004.2 kPa | 0.02405
423.15 K, 9504.3 kPa | 0.02412
423.15 K, 10006 kPa | 0.02418
423.15 K, 11004 kPa | 0.02434
423.15 K, 11994 kPa | 0.02451
423.15 K, 13002 kPa | 0.02466
423.15 K, 14011 kPa | 0.02483
423.15 K, 15002 kPa | 0.025
423.15 K, 16009 kPa | 0.02517
423.15 K, 17009 kPa | 0.02535
423.15 K, 17999 kPa | 0.02554
423.15 K, 19008 kPa | 0.02573
423.15 K, 20008 kPa | 0.02591
423.15 K, 20987 kPa | 0.02609
423.15 K, 22009 kPa | 0.0263
423.15 K, 23014 kPa | 0.02651
423.15 K, 24019 kPa | 0.02669
423.15 K, 25024 kPa | 0.02691
423.15 K, 26017 kPa | 0.02711
423.15 K, 27035 kPa | 0.02732
423.15 K, 28010 kPa | 0.02753
423.15 K, 29015 kPa | 0.02774
423.15 K, 30011 kPa | 0.02794
423.15 K, 31001 kPa | 0.02815
423.15 K, 31988 kPa | 0.02837
423.15 K, 32989 kPa | 0.02859
423.15 K, 34020 kPa | 0.02882
423.15 K, 35050 kPa | 0.02903
